Consider 15 molecules from patent US20250115597A1, “TYK2 INHIBITORS AND COMPOSITIONS AND METHODS THEREOF” (LYNK PHARMACEUTICALS CO. LTD., priority 2021, published 2025).

Where two headings read alike, the source gives them in different places.

One data set addresses T1, TYK2-JH2 domain (Homo sapiens, UniProt P29597).
T1 construct: IC50 on JH2 domain activity (nM)
In words: Binding activity test for JH2 domain of TYK2 (Tb-antibody/tracer FRET). As to conditions: for JAK1/TYK2 selectivity: ratio JAK1-JH2 IC50 / TYK2-JH2 IC50. As to the method:
(§1) Binding Activity Test for […] Domain of JAK1 and TYK2 The compounds are prepared in DMSO for 200× top dose, then serial dilute it with 27-fold for 3 more points. Add 8 μL/well in echo source plate, echo will add 75 nL/well with 3-fold serial dilution for 11 points in assay plate. 75 nL DMSO for high control and low control. […] For low control, add 5 μL/well assay buffer. And then spin down at 1000 rpm and centrifuge for 30 seconds. After enzyme system prepared, add 5 μL of Tb-antibody solution into each wells of assay plate. Spin down at 1000 rpm and centrifuge for 30 sec. After Tb-antibody added, also add 5 μL of tracer into the assay plate. Spin down at 1000 rpm and centrifuge for 30 sec. Incubate for 60 mins at 25° C. firstly and then continue to incubate the plate at 4° C. overnight. Read by envision in FRET mode. The Luminescence value was recorded by a multi-label reader Envision (PerkinElmer).

For a further data set, the target named is T2, JAK1-JH2 domain (Homo sapiens, UniProt P23458).
T2 construct: IC50 on JH2 domain activity (nM)
In words: Binding activity test for JH2 domain of JAK1 (Tb-antibody/tracer FRET). The protocol:
as §1

A short description of data set [1]: Microsomal metabolic stability assay. The data set is classed as in vitro ADME. The settings on record: pH 7.4, 0.5 mg/mL protein, 1 μM compound. The method in brief: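 Parent loss was tracked by LC/MS/MS at 0, 5, 15, 30 and 45 min, with half-life derived from the ln(% remaining)–time slope. Incubation at 37 °C, pH 7.4 phosphate/EDTA buffer: 0.5 mg/mL microsomes, 1 μM compound, NADPH-regenerated (2 mM).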

Data set [2] has as its target T3, Ba/F3-FL-TYK2-P760L cells (Homo sapiens, UniProt P29597, P760L, cells depend on it).
T3 construct: BaF3-FL-T2P760L (nM)
In words: Anti-proliferative assay, Ba/F3-FL-TYK2-P760L cells (Cell-Titer Glo). Format: cell-based. The settings on record: 72 h, read-out: BaF3-FL-T2P760L IC50. The method in brief: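 Compound exposure ran 72 h at 37 °C in 5% CO2 across nine 3-fold concentrations from a 20 μM top dose, added 24 h after seeding 2000 cells/well.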

Where [3] appears, read: dog liver microsomes, read-out: Dog LM Clint.
[4] abbreviates: dog liver microsomes, read-out: Dog LM T½.
The mark [5] stands for this setting: human liver microsomes, read-out: Human LM Clint.
Setting [6] is: human liver microsomes, read-out: Human LM T½.
Where [7] appears, read: rat liver microsomes, read-out: Rat LM Clint.
Setting [8] is: rat liver microsomes, read-out: Rat LM T½.

T3 sequence (P29597 whole entry P760L): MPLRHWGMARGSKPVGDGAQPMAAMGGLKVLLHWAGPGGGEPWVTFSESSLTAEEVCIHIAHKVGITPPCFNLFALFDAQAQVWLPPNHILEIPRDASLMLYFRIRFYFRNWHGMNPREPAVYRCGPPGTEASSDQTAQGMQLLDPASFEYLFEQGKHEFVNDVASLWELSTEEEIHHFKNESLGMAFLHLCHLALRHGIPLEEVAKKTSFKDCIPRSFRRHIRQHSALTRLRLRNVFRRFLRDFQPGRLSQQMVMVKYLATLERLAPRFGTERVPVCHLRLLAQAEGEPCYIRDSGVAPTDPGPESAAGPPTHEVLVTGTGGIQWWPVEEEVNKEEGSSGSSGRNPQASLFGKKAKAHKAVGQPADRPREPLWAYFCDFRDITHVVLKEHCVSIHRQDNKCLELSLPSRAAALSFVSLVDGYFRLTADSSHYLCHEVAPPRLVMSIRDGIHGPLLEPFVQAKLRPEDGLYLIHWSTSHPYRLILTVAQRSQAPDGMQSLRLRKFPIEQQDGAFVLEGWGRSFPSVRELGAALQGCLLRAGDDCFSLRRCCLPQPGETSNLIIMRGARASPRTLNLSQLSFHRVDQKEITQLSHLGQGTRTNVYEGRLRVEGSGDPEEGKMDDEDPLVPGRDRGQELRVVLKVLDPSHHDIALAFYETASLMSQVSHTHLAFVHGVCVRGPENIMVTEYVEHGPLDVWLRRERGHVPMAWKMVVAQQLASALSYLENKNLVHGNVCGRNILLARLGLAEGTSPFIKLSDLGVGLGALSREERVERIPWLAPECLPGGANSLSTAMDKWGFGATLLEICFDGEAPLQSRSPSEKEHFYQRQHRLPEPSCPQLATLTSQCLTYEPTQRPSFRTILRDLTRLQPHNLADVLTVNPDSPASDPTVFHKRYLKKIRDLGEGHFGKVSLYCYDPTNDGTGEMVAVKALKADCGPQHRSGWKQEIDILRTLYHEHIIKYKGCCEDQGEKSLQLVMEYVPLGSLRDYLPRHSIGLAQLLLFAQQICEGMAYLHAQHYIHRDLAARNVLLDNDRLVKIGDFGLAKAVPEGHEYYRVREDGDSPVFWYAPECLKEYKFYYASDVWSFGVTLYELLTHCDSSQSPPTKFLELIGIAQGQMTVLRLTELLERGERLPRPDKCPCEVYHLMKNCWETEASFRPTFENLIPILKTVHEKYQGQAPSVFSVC
T2 sequence (P23458 583-855 limits assumed): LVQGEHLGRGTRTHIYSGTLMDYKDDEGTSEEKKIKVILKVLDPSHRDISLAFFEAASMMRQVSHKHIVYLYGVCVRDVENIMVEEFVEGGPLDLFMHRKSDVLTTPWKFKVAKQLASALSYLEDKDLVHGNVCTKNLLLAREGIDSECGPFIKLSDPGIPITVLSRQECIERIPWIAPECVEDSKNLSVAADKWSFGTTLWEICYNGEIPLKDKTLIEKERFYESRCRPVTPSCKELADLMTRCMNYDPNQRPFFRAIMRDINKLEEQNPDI
T1 sequence (P29597 589-875 limits assumed): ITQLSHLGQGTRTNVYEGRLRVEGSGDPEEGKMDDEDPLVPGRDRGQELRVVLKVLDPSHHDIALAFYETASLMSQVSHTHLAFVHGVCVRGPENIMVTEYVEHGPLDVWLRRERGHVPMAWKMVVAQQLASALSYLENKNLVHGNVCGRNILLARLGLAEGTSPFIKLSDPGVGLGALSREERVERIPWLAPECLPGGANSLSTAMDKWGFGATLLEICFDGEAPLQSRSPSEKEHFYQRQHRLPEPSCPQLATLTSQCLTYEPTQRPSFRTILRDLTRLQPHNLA

Regarding `[2H]C([2H])([2H])NC(=O)c1cnc(NC(=O)C2CC2)cc1Nc1cn(CC)c2ncn([C@H](C)C(F)(F)F)c(=O)c12` (single isomer, unassigned) [Example 254A, (R*)-6-(cyclopropanecarboxamido)-4-((7-ethyl-4-oxo-3-(1,1,1-trifluoropropan-2-yl)-4,7-dihydro-3H-pyrrolo[2,3-d]pyrimidin-5-yl)amino)-N-(methyl-d3)nicotinamide], the figures for the IC50 on TYK2-JH2 domain and on JAK1-JH2 domain were 0.868 nM and 44.1 nM, respectively. Further, the JAK1/TYK2 selectivity on TYK2-JH2 domain was found to be 50.81. For the same molecule, the microsomal CLint at 1 μM in data set [1] (setting [3]) was 4.66 µL/min/mg; in data set [1] (setting [5]) it was 23 µL/min/mg; in data set [1] (setting [7]), 39.4 µL/min/mg. For the same molecule, the half-life at 1 μM was determined as 4.95 h in data set [1] (setting [4]), 1 h in data set [1] (setting [6]) and 0.586 h in data set [1] (setting [8]).

Consider `CCNC(=O)c1cnc(NC(=O)C2CC2)cc1Nc1ccc2cnn(CC)c2c1OC` [Example 97, 6-(Cyclopropanecarboxamido)-N-ethyl-4-((1-ethyl-7-methoxy-1H-indazol-6-yl)amino)nicotinamide], for which the IC50 was 4.38 nM on TYK2-JH2 domain and greater than 299 nM at JAK1-JH2 domain. Besides, the GI50 in data set [2] came to 1270 nM.

On to `[2H]C([2H])([2H])NC(=O)c1cnc(NC(=O)C2CCC2)cc1Nc1ccc2cnn(CC)c2c1OC` [Example 242, 6-(Cyclobutanecarboxamido)-4-((1-ethyl-7-methoxy-1H-indazol-6-yl)amino)-N-(methyl-d3)nicotinamide], for which, at TYK2-JH2 domain, the IC50 was 1.18 nM and the JAK1/TYK2 selectivity worked out at 38.5. At JAK1-JH2 domain, this molecule returned an IC50 of 45.3 nM. The GI50 in data set [2] came out at 404 nM.

Take `[2H]C([2H])([2H])NC(=O)c1cnc(NC(=O)C2CC(C)C2)cc1Nc1ccc2cnn(CC)c2c1OC` (stereo not drawn) [Example 236, 4-((1-Ethyl-7-methoxy-1H-indazol-6-yl)amino)-N-(methyl-d3)-6-(3-methylcyclobutane-1-carboxamido)nicotinamide]: the values for the half-inhibitory concentration (IC50) on TYK2-JH2 domain and on JAK1-JH2 domain were 0.969 nM and 43.8 nM, respectively. Moreover, the JAK1/TYK2 selectivity at TYK2-JH2 domain amounted to 45.2. Further, the GI50 in data set [2] is 892 nM.

For the molecule `[2H]C([2H])([2H])NC(=O)c1cnc(NC(=O)C2CC2)cc1Nc1ccc2cnn(C(C)C#N)c2c1OC` (single isomer, unassigned) [Example 249B, (S*)-4-((1-(1-cyanoethyl)-7-methoxy-1H-indazol-6-yl)amino)-6-(cyclopropanecarboxamido)-N-(methyl-d3)nicotinamide], the IC50 worked out at 0.738 nM at TYK2-JH2 domain and 29 nM on JAK1-JH2 domain. Besides, at TYK2-JH2 domain, the JAK1/TYK2 selectivity stood at 39.25. For the same molecule, the GI50 in data set [2] stood at 342 nM.

In the case of `[2H]C([2H])([2H])NC(=O)c1cnc(NC(C)=O)cc1Nc1ccc2cnn(CC)c2c1OC` [Example 230, 6-Acetamido-4-((1-ethyl-7-methoxy-1H-indazol-6-yl)amino)-N-(methyl-d3)nicotinamide], on TYK2-JH2 domain, the IC50 was 3.01 nM and the JAK1/TYK2 selectivity was determined as 19.5. The molecule also registered an IC50 at JAK1-JH2 domain of 58.7 nM. Moreover, the GI50 in data set [2] amounted to 478 nM.

On to `[2H]C([2H])([2H])NC(=O)c1cnc(Nc2ccc(F)cn2)cc1Nc1ncc2cnn(C([2H])([2H])[2H])c2c1OC` [Example 277, 6-((5-Fluoropyridin-2-yl)amino)-4-((7-methoxy-1-(methyl-d3)-1H-pyrazolo[4,3-c]pyridin-6-yl)amino)-N-(methyl-d3)nicotinamide], for which, on TYK2-JH2 domain, the 50% inhibitory concentration (IC50) was 1.11 nM and the JAK1/TYK2 selectivity is given as 55.5. At JAK1-JH2 domain, the IC50 was found to be 61.4 nM. In data set [2], the GI50 came out at 60.2 nM.

Turning to `[2H]C([2H])([2H])NC(=O)c1cnc(Nc2ccn(C)n2)cc1Nc1ccn2ncc(C)c2c1OC` [Example 255, 4-((4-Methoxy-3-methylpyrazolo[1,5-a]pyridin-5-yl)amino)-N-(methyl-d3)-6-((1-methyl-1H-pyrazol-3-yl)amino)nicotinamide], at TYK2-JH2 domain, the IC50 came to 0.323 nM and the JAK1/TYK2 selectivity is given as 13.7. Besides, on JAK1-JH2 domain, the IC50 amounted to 4.42 nM. The GI50 in data set [2] came out at 116 nM.

In the case of `CCn1ccc2c(c(Nc3cc(NC(=O)C4CC4)ncc3C(=O)NC)cn2C2CC2)c1=O` [Example 245, 6-(Cyclopropanecarboxamido)-4-((1-cyclopropyl-5-ethyl-4-oxo-4,5-dihydro-1H-pyrrolo[3,2-c]pyridin-3-yl)amino)-N-methylnicotinamide], on TYK2-JH2 domain, the half-maximal inhibitory concentration (IC50) stood at 0.157 nM and the JAK1/TYK2 selectivity came to 27.7. On JAK1-JH2 domain, this molecule yielded an IC50 of 4.34 nM. Besides, in data set [2], the GI50 was found to be 56.4 nM.

Regarding `[2H]C([2H])([2H])NC(=O)c1cnc(NC(=O)C2CC2)cc1Nc1cn(C)c2ccn(CC)c(=O)c12` [Example 100, 6-(Cyclopropanecarbonylamino)-4-[(5-ethyl-1-methyl-4-oxo-pyrrolo[3,2-c]pyridin-3-yl)amino]-N-(methyl-d3)pyridine-3-carboxamide], the IC50 on TYK2-JH2 domain is 0.887 nM. Also, the GI50 in data set [2] amounted to 374 nM. Moreover, the microsomal CLint at 1 μM was less than 18.6 µL/min/mg in data set [1] (setting [3]), 28.6 µL/min/mg in data set [1] (setting [5]) and 49.5 µL/min/mg in data set [1] (setting [7]). Moreover, the values for the half-life at 1 μM in data set [1] (setting [4]), in data set [1] (setting [6]) and in data set [1] (setting [8]) were greater than 3.1 h, 1.53 h and 0.794 h, respectively.

Take `[2H]C([2H])([2H])NC(=O)c1cnc(NC(=O)C2CC2)cc1Nc1cn(CC)c2ncn([C@@H](C)C(F)(F)F)c(=O)c12` (single isomer, unassigned) [Example 254B, (S*)-6-(cyclopropanecarboxamido)-4-((7-ethyl-4-oxo-3-(1,1,1-trifluoropropan-2-yl)-4,7-dihydro-3H-pyrrolo[2,3-d]pyrimidin-5-yl)amino)-N-(methyl-d3)nicotinamide]: the IC50 on TYK2-JH2 domain worked out at 11.6 nM; on JAK1-JH2 domain, 252 nM. Besides, the JAK1/TYK2 selectivity on TYK2-JH2 domain stood at 21.60.

At TYK2-JH2 domain, `[2H]C([2H])([2H])NC(=O)c1cnc(NC(=O)C2CC2)cc1Nc1cn(C)c2ccn(C(C)C(F)(F)F)c(=O)c12` (stereo not drawn) [Example 190, 6-(Cyclopropanecarboxamido)-N-(methyl-d3)-4-((1-methyl-4-oxo-5-(1,1,1-trifluoropropan-2-yl)-4,5-dihydro-1H-pyrrolo[3,2-c]pyridin-3-yl)amino)nicotinamide] returned an IC50 of 4.03 nM. Also, in data set [2], the GI50 stood at 78.3 nM. In addition, the values for the microsomal CLint at 1 μM in data set [1] (setting [3]), in data set [1] (setting [5]) and in data set [1] (setting [7]) were 14.7 µL/min/mg, 69.3 µL/min/mg and 46.4 µL/min/mg, respectively. Besides, the half-life at 1 μM came out at 1.57 h in data set [1] (setting [4]), 0.333 h in data set [1] (setting [6]) and 0.498 h in data set [1] (setting [8]).

In turn, `[2H]C([2H])([2H])NC(=O)c1cnc(NC(=O)C2CC2)cc1Nc1cn(CCOC)c2ccn(CC)c(=O)c12` [Example 193, 6-(Cyclopropanecarboxamido)-4-((5-ethyl-1-(2-methoxyethyl)-4-oxo-4,5-dihydro-1H-pyrrolo[3,2-c]pyridin-3-yl)amino)-N-(methyl-d3)nicotinamide] registered an IC50 on TYK2-JH2 domain of 1.41 nM. In addition, the GI50 in data set [2] turned out to be 368 nM. Moreover, the microsomal CLint at 1 μM came out at 11.2 µL/min/mg in data set [1] (setting [3]), 10.8 µL/min/mg in data set [1] (setting [5]) and 53.8 µL/min/mg in data set [1] (setting [7]). Besides, the half-life at 1 μM in data set [1] (setting [4]) amounted to 2.06 h; in data set [1] (setting [6]), 2.14 h; in data set [1] (setting [8]), 0.43 h.

At TYK2-JH2 domain, `[2H]C([2H])([2H])NC(=O)c1cnc(NC(=O)C2CC2)cc1Nc1cn(C)c2ccn(CC(F)(F)F)c(=O)c12` [Example 110, 6-(Cyclopropanecarboxamido)-N-(methyl-d3)-4-((1-methyl-4-oxo-5-(2,2,2-trifluoroethyl)-4,5-dihydro-1H-pyrrolo[3,2-c]pyridin-3-yl)amino)nicotinamide] showed an IC50 of 0.92 nM. The GI50 in data set [2] is 102 nM. The values for the microsomal CLint at 1 μM in data set [1] (setting [3]), in data set [1] (setting [5]) and in data set [1] (setting [7]) were 15.9 µL/min/mg, 48.8 µL/min/mg and 73 µL/min/mg, respectively. Also, the half-life at 1 μM in data set [1] (setting [4]) came to 1.45 h; in data set [1] (setting [6]) it was 0.473 h; in data set [1] (setting [8]), 0.316 h.

For `[2H]C([2H])([2H])NC(=O)c1cnc(NC(=O)C2CC2)cc1Nc1cn(C)c2ncn([C@@H](C)C(F)(F)F)c(=O)c12` (single isomer, unassigned) [Example 234B, (S*)-6-(cyclopropanecarboxamido)-N-(methyl-d3)-4-((7-methyl-4-oxo-3-(1,1,1-trifluoropropan-2-yl)-4,7-dihydro-3H-pyrrolo[2,3-d]pyrimidin-5-yl)amino)nicotinamide], at TYK2-JH2 domain, the IC50 is 5.78 nM and the JAK1/TYK2 selectivity was 42.2. Further, the IC50 on JAK1-JH2 domain stood at 244 nM.
